Molecular target: Human recombinant DHX9 protein (Homo sapiens (Human), UniProt Q08211)
Experiment: DHX9 ATPase assay (ADP-Glo)
Format: biochemical
Conditions: for IC50: read-out: DHX9 Biochemical Inflection Point

Human recombinant DHX9 protein, sequence (Q08211 whole entry): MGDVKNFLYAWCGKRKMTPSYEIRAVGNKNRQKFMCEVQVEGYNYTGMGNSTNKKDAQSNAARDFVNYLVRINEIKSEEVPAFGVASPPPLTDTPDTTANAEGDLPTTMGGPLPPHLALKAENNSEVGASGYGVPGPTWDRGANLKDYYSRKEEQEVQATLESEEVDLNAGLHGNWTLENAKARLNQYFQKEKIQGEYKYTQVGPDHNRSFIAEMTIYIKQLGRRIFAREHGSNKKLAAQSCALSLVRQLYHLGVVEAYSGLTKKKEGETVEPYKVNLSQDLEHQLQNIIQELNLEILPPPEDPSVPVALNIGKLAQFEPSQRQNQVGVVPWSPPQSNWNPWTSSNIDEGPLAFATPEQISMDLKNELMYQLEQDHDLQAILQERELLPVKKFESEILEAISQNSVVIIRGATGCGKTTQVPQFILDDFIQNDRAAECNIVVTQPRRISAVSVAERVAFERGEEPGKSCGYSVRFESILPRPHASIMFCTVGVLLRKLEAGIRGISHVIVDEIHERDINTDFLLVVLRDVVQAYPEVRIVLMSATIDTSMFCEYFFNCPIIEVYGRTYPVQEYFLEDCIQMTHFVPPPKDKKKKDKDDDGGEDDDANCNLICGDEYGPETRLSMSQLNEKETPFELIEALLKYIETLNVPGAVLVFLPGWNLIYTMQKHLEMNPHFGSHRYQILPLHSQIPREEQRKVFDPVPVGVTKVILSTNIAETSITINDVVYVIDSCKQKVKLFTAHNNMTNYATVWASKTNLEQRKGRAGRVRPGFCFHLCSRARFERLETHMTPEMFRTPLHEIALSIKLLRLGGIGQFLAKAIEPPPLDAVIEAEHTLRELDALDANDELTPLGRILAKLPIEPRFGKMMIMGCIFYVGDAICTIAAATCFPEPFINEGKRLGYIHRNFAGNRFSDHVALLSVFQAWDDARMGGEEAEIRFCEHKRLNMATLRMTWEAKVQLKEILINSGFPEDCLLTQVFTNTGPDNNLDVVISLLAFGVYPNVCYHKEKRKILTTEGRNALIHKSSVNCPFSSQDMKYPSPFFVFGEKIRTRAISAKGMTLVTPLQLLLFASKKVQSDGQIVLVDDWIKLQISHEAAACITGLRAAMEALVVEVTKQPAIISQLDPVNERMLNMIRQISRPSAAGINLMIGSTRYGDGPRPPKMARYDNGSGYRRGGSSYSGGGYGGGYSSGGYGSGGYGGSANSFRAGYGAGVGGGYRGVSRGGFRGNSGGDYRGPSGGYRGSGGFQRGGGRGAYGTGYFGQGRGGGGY

| Structure (SMILES) | DHX9 Biochemical Max Inhibition | IC50 |
| --- | --- | --- |
| CS(=O)(=O)Nc1cc(Cl)cc(NC(=O)c2cc(-c3ccc(N4CCOCC4)cn3)n(CC(F)(F)F)c2)c1 [Example 275] | 75.1% | 76.2 nM |
| Cc1sc(C(=O)Nc2cc(Cl)cc(NS(C)(=O)=O)c2)cc1-c1ncc(OC(C)C)cn1 [Example 541, N-(3-chloro-5-(methylsulfonamido)phenyl)-4-(5-isopropoxypyrimidin-2-yl)-5-methylthiophene-2-carboxamide] | 74.1 | 15.1 nM |
| CS(=O)(=O)Nc1cc(Cl)cc(NC(=O)c2cnn(-c3ncccc3OCc3ccncc3)c2)c1 [Example 64] | 61.8% | 59.9 nM |
| Cc1sc(C(=O)Nc2cc(Cl)cc(NS(C)(=O)=O)c2)cc1-c1c(F)cc(F)c[n+]1[O-] [Example 736] | 70.3 | 54.9 nM |
| CS(=O)(=O)Nc1cc(Cl)cc(NC(=O)c2cc3ccccn3c2)c1 [Example 209] | 64% | 89.4 nM |
| Cc1sc(C(=O)Nc2cc(Cl)cc(NS(C)(=O)=O)c2)cc1-c1ncc(N2CC(F)(F)C2)cc1OC1CCC1 [Example 514] | 73.8 | 73.3 nM |
| Cn1cc(C(=O)Nc2cc(Cl)cc(NS(C)(=O)=O)c2)cc1-c1ccc(C(F)(F)F)cn1 [Example 569] | 75.9 | 55.6 nM |
| Cc1sc(C(=O)Nc2cc(Cl)cc(NS(C)(=O)=O)c2)cc1-c1ncc(N2CCC(F)(F)C2)cc1F [Example 484] | 66.5 | 33.5 nM |
| CC(C)(C)OC(=O)N1CC(n2cc(C(=O)Nc3cc(Cl)cc(NS(C)(=O)=O)c3)cc2-c2ncc(F)cn2)C1 [Example 645] | 70.8 | 366 nM |
| CCS(=O)(=O)Nc1cc(Cl)cc(NC(=O)c2cc(-c3ncc(F)cn3)n(C)c2)c1 [Example 542] | 73 | 30 nM |
| CCS(=O)(=O)Nc1cc(Cl)cc(NC(=O)c2cc(-c3ncc(OC(C)(C)C)cn3)c(C)s2)c1 [Example 566] | 66 | 186 nM |
| COc1cnc(-n2cc(C(=O)Nc3cc(Cl)cc(NS(C)(=O)=O)c3)cc2C)nc1 [Example 441] | 72.6 | 26.5 nM |
| Cc1cc(C(=O)Nc2cc(Cl)cc(NS(C)(=O)=O)c2)cn1-c1ccc(N(C)C2CCOC2)cn1 (stereo not shown) [Example 269] | 76.9% | 4.4 nM |
| COCCOc1ccc(-n2cc(C(=O)Nc3cc(Cl)cc(NS(C)(=O)=O)c3)cc2C)nc1 [Example 442] | 72.7 | 9.3 nM |
| Cc1sc(C(=O)Nc2cc(Cl)cc(NS(C)(=O)=O)c2)cc1-c1ncc(N2CCC(C(F)(F)F)CC2)cc1F [Example 481] | 62.1 | 204 nM |
| Cc1sc(C(=O)Nc2cc(F)cc(NS(C)(=O)=O)c2)cc1-c1ncc(N2CC(C(F)(F)F)C2)cc1F [Example 501] | 73.3 | 70.9 nM |
| CS(=O)(=O)Nc1cc(Cl)cc(NC(=O)c2cc3cc(Cl)ccc3s2)c1 [Example 298] | 58.8% | 4210 nM |
| Cn1cc(C(=O)Nc2cc(Cl)cc(NS(C)(=O)=O)c2)cc1-c1c(F)cc(F)cc1F [Example 547] | 81.1 | 126 nM |
| CS(=O)(=O)Nc1cc(Br)cc(NC(=O)c2cnn(-c3ccccn3)c2)c1 [Example 36, N-(3-bromo-5-(methylsulfonamido)phenyl)-1-(pyridin-2-yl)-1H-pyrazole-4-carboxamide] | 56.86% | 28 nM |
| CS(=O)(=O)Nc1cc(Cl)cc(NC(=O)c2cnn(-c3ncccc3Oc3cccnc3)c2)c1 [Example 676] | 68.4 | 70 nM |
| CS(=O)(=O)Nc1cc(Cl)cc(NC(=O)c2cnn([C@H]3CC[C@H]3O)c2)c1 (single isomer, unassigned) [Example 306b] | 74.2% | 253 nM |
| CN1C(=O)N(c2csc(C(=O)Nc3cc(Cl)cc(NS(C)(=O)=O)c3)c2)C(=O)C1(C)C [Example 432] | 75.4 | 12.1 nM |
| Cn1cc(C(=O)Nc2cc(Cl)cc(NS(C)(=O)=O)c2)cc1-c1ccc(N2CCC(F)(F)C2)cn1 [Example 527] | 65.3 | 42.4 nM |
| Cc1cc(C(=O)Nc2cc(Br)cc(NS(C)(=O)=O)c2)cn1C1CCCCC1 [Example 85, N-(3-bromo-5-(methylsulfonamido)phenyl)-1-cyclohexyl-5-methyl-1H-pyrrole-3-carboxamide] | 59.5% | 99 nM |

Next, values leading:

| DHX9 Biochemical Max Inhibition | IC50 | Structure (SMILES) |
| --- | --- | --- |
| 62.5% | 57.2 nM | Cc1sc(C(=O)Nc2cc(Br)cc(NS(C)(=O)=O)c2)cc1-c1ccccc1O [Example 20] |
| 63% | 7.8 nM | CS(=O)(=O)Nc1cc(Br)cc(NC(=O)c2cc(-n3cccn3)cs2)c1 [Example 60] |
| 72.3% | 12.7 nM | CS(=O)(=O)Nc1cc(Cl)cc(NC(=O)c2cnn(-c3ncc(F)cc3OCc3cccc(F)c3)c2)c1 [Example 202] |
| 66.8 | 150 nM | Cc1sc(C(=O)Nc2cc(Cl)cc(NS(C)(=O)=O)c2)cc1-c1ncc(N2CCC3(CC2)CC3(F)F)cc1F [Example 478] |
| 73.8% | 4.7 nM | Cc1cc(C(=O)Nc2cc(Cl)cc(NS(C)(=O)=O)c2)cn1-c1ccc(N2CC3(COC3)C2)cn1 [Example 276] |
| 50.9% | 298 nM | CS(=O)(=O)Nc1cc(Br)cc(NC(=O)c2ccc3c(c2)[nH]c(=O)n3Cc2ccccc2)c1 [Example 99, 1-benzyl-N-(3-bromo-5-(methylsulfonamido)phenyl)-2-oxo-2,3-dihydro-1H-benzo[d]imidazole-5-carboxamide] |
| 72.7% | 26 nM | COc1ccc(-n2cc(C(=O)Nc3cc(Cl)cc(NS(C)(=O)=O)c3)cn2)nc1 [Example 197] |
| 68.1 | 231 nM | CS(=O)(=O)Nc1cc(Cl)cc(NC(=O)c2cnn(-c3c(F)cccc3OCc3cnco3)c2)c1 [Example 721] |
| 70.1 | 149 nM | Cc1cc(C(=O)Nc2cc(Cl)cc(NS(C)(=O)=O)c2)cn1-c1ncc(Cl)cn1 [Example 578] |
| 80.6% | 15.5 nM | COc1cc(F)cnc1-c1cc(C(=O)Nc2cc(Cl)cc(NS(C)(=O)=O)c2)sc1C [Example 351] |
| 67.7 | 103 nM | CCc1sc(C(=O)Nc2cc(Cl)cc(NS(C)(=O)=O)c2)cc1-c1ncc(F)cc1F [Example 588] |
| 68.1 | 343 nM | CS(=O)(=O)Nc1cc(Cl)cc(NC(=O)c2cc(-c3ncc(F)cn3)n(C3CNC3)c2)c1 [Example 652] |
| 62.8 | 79.1 nM | CS(=O)(=O)Nc1cc(Cl)cc(NC(=O)c2cc(-c3ncc(F)cn3)c(Cl)s2)c1 [Example 450] |
| 78.3 | 19.9 nM | Cc1sc(C(=O)Nc2cc(Cl)cc(NS(C)(=O)=O)c2)cc1-c1ncc(N2CC(F)(F)C2)cc1OC(C)C [Example 534] |
| 78% | 29.2 nM | Cc1cc(C(=O)Nc2cc(Cl)cc(NS(C)(=O)=O)c2)cn1-c1ccc(N2CCN(C(=O)C(C)C)CC2)cn1 [Example 283] |
| 70.25 | 17 nM | Cc1cc(C(=O)Nc2cc(Cl)cc(NS(C)(=O)=O)c2)cn1-c1ncc(N2CC(F)(F)C2)cn1 [Example 418] |
| 65.2 | 31.6 nM | Cn1cc(C(=O)Nc2cc(Cl)cc(NS(C)(=O)=O)c2)cc1-c1ccc(N2CC(C(F)(F)F)C2)cn1 [Example 497] |
| 45.8% | 14600 nM | CS(=O)(=O)Nc1cc(Br)cc(NC(=O)c2cnn(-c3cccc(OC(F)F)n3)c2)c1 [Example 57] |
| 75.5% | 13.4 nM | CCS(=O)(=O)Nc1cc(Cl)cc(NC(=O)c2cc(-c3ncc(F)cc3OC)c(C)s2)c1 [Example 354] |
| 75.7 | 4.2 nM | Cc1sc(C(=O)Nc2cc(Cl)cc(NS(=O)(=O)CCO)c2)cc1-c1ncccc1OCc1cncc(F)c1 [Example 626] |
| 56.7% | 335 nM | CS(=O)(=O)Nc1cc(Cl)cc(NC(=O)c2cc3ccc(Cl)cn3c2)c1 [Example 299] |
| 81.7 | 5.1 nM | CS(=O)(=O)Nc1cc(Cl)cc(NC(=O)c2cnn(C3CCCC3OCc3ccccc3)c2)c1 (stereo not shown) [Example 424] |
| 48.7% | 18.7 nM | Cc1ccc(-n2cc(C(=O)Nc3cc(Br)cc(NS(C)(=O)=O)c3)cn2)nc1 [Example 42] |
| 55.9% | 151 nM | CS(=O)(=O)Nc1cc(Cl)cc(NC(=O)c2cnn(C3CCOCC3)c2)c1 [Example 131, N-(3-chloro-5-(methylsulfonamido)phenyl)-1-(tetrahydro-2H-pyran-4-yl)-1H-pyrazole-4-carboxamide] |
| 65.7 |  | CC(C)Oc1ccc(-c2csc(C(=O)Nc3cc(Cl)cc(NS(C)(=O)=O)c3)c2)nc1 [Example 459] |
| 61.9 | 43.6 nM | Cn1cc(C(=O)Nc2cc(Cl)cc(NS(C)(=O)=O)c2)cc1-c1ccc(OC(C)(C)C)cn1 [Example 555] |
| 71.3 | 5.7 nM | Cc1sc(C(=O)Nc2cc(Cl)cc(NS(C)(=O)=O)c2)cc1-c1ncc(OC(C)(C)CO)cn1 [Example 678] |
| 73.4% | 84.4 nM | CS(=O)(=O)Nc1cc(Cl)cc(NC(=O)c2cnn(-c3ncccc3S(C)(=O)=O)c2)c1 [Example 199] |
| 78.6 | 18.6 nM | Cc1cc(N2CC(F)(F)C2)cnc1-n1cc(C(=O)Nc2cc(Cl)cc(NS(C)(=O)=O)c2)cc1C [Example 419] |
| 66.7% |  | Cc1cccnc1-c1cc(C(=O)Nc2cc(Cl)cc(NS(C)(=O)=O)c2)cn1C [Example 81] |
